Entries after “also recorded” stand apart in the source; their conditions may differ. Where two headings read alike, the source gives them in different places.
Tests used:
human ADPKD cells = experiment: In vitro cyst formation in human ADPKD cells; type: cell-based
Source text: I have substituted human ADPKD cells for the murine CPK cells of Example 1 and produced similar results. Other cyst-forming cells are believed to also form suitable results with only minor deviations from the conditions set forth in Example 1.
Cell suspensions were separated from debris by sedimentation at unit gravity and decantation. After washing once with DMEM/F12 medium, cells were suspended in DMEM/F12 supplemented with 1.2 gm/l sodium bicarbonate, 1× insulin, transferrin and selenium (Sigma # 11184), 1% lipids supplement (Sigma # L4646) and 1× antibiotic/antimycotic (Sigma # A7292) at a density of 5×10^4 cells per ml. Two mls of the cell suspension were aliquoted into each well of a six-well plastic cell culture plates that had been precoated with 2 mls of 1% low melting point agarose in DMEM/F12 and incubated at 37° C. in a humidified atmosphere of 5% CO2 in air.
(§1) I used the in vitro cyst formation system of the present invention to analyze compounds that affect the process of cyst formation. To determine the therapeutic effectiveness of an agent, cyst-forming cells are suspended in a medium to which the agent has been added. These cells are then cultured on a solid phase without formation of a layer of cells on the surface, such as in the assay system described in Example 1. The extent to which the cells actually form cysts can be detected and compared to the extent of cyst formation expected if no agent were added. If the amount of cyst formation is lower than expected, then the agent is a good candidate for therapeutic intervention of cystic diseases.

Murine CPK Cells [1] = experiment: 3H-thymidine incorporation (DNA synthesis) in CPK cell suspension culture; type: cell-based, mouse; settings: for ^3 H-dThd Incorporation: ± SD, three wells, concentrations as in Table II, control 100 ± 11, 1440 min; for ^3 H-dThd incorporation / DNA synthesis (in words): CPK cultures
Protocol: Growth studies were performed on kidney cells derived from day 10, 21 and 28 postnatal CPK mice and their normal littermates. Immediately after cells were placed in suspension or monolayer culture, 3 μCi of ^3 H-thymidine (^3 H-dThd, specific activity 45 Ci/mmol, Amersham, Ill.) was placed in each well of the culture plate. DNA synthesis was assessed by incorporation of ^3 H-dThd over the 24 hours of culture, and trichloroacetic acid-insoluble. radioactivity was expressed as cpm/μg protein. Protein was assayed with the BCA reagent as described by the manufacturer (Pierce, Rockford, Ill.). At 24 hours of culture, an aliquot (0.2 ml) of the suspension was removed and the number of cysts counted using an inverted microscope. The number of cysts was expressed as a ratio factored for the total number of cells in the suspension at 24 hours of culture. Cyst diameter was measured at 100× using an eyepiece micrometer.
(§2) The effects of various metabolic inhibitors on cyst formation were studied in cultures derived from day 21 postnatal CPK mice. […] Taxol (25 μM), a microtubule specific inhibitor, was from Calbiochem (La Jolla, Calif.). All other chemicals were obtained from Sigma Chemical Co. Cytosine arabinoside was added at the final concentration of 20 μg/ml to inhibit DNA synthesis; α-amanitin at 100 ng/ml to inhibit RNA synthesis; cycloheximide at 40 μg/ml to inhibit protein synthesis; amiloride at 1 mM to inhibit the renal epithelial Na^+ -H^+ exchange; ouabain at 0.5 mM to inhibit Na^+ -K^+ -ATPase; brefeldin-A at 10 μg/ml to inhibit transport of surface proteins; griseofulvin at 350 μM to inhibit microtubule function; colchicine at 10 μM to inhibit microtubule polymerization; and cytochalasin-B and cytochalasin-D at 10 μM to depolymerize actin filaments.
(§3) In the presence of these metabolic inhibitors in vitro, cyst formation was noted to be either present or absent; if present, the diameters of 20 cysts from a 0.2 ml aliquot were measured. In the same samples, ^3 H-dThd incorporation was also measured as described above. […] After each wash, cell clusters were collected by centrifuging at 200×g for 1 minute and the supernatant discarded. Washed cell clusters were resuspended in the original volume of growth medium without inhibitors, placed in agarose coated wells and incubated at 37° C. in a moisture saturated incubator in 5% CO2 and air.
(§4) In this table, the mean cyst size is reported as ±SD with a measurement of twenty cysts. The ^3 H-dThd incorporation is reported as ±SD using measurements of three wells. The * indicates […] versus control. […] The entries listed as "NA" in the table indicate data that is not available.

Murine CPK Cells [2] = experiment: In vitro cyst formation and cyst size in suspension culture of murine CPK cells; type: cell-based, mouse; settings: for Cyst Size: mean ± SD of twenty cysts, concentrations as in Table II, control 71 ± 22; for cyst formation (in words): 24 h suspension culture, ouabain 0.5 mM, also 1 mM, b155 taxol 25 μM, colchicine 10 μM, vinblastine 1 μM, cytochalasins 10 μM, model species not given
Protocol: At 10, 21 and 28 days after birth, mice having congenital polycystic kidney disease (CPK) and their phenotypically normal littermates were sacrificed by cervical dislocation. Kidneys were harvested aseptically and washed with DMEM/F12 (Sigma Chemical Co., St. Louis, Mo.) in a 1:1 mix. Each decapsulated kidney was chopped into cubes (1 mm) and incubated in 5 ml of collagenase solution composed of 1 mg/ml collagenase type IV (Worthington Biochemical Corporation, Freehold, N.J.), 1 mg/ml egg white trypsin inhibitor (Worthington) in 1:1 DMEM/F12.
The top 12 mls, which contained both single cells and aggregates of up to 10 cells, as assessed by inverted phase-ontrast microscopy, were placed in 2 ml aliquots in the wells of plastic culture plates (Corning, N.Y.) precoated with 1% agarose in DMEM:F12 (2 ml in each well of a 6-well plate; 1 ml in each well of a 24-well plate). Cell samples were digested with further incubation for 10 minutes in 0.05% trypsin and 0.53 mM EDTA (Gibco, BRL Gaithesburg, Md.) at 37° C. All cultures were plated at a final density of 1-3×10^4 cell, per well. For growth studies of monolayer cells, identical preparations were grown on the plastic surface of the culture plates. Both the monolayers and the cell suspensions were incubated at 37° C. in a moisture saturated incubator in 5% CO2 and air.
as §1, §2, §3, §4

Murine CPK Cells [3] = experiment: as above; type: cell-based, mouse; settings: day 21, 24 h, final concentration per Table II (cytosine arabinoside 20 μg/ml, α-amanitin 100 ng/ml, cycloheximide 49 μg/ml, ouabain 1 mM, amiloride 1 mM, brefeldin-A 10 μg/ml, griseofulvin 350 μM, colchicine 10 μM, vinblastine 1 μM, nocodazole 30 μM, taxol 25 μM, cytochalasins 10 μM)
homozygous cpk mice = experiment: Survival of cpk mice on weekly intraperitoneal treatment (Example 8, FIG. 2); type: in vivo, mouse
Source text: Untreated and methotrexate (MTX) treated polycystic cpk mice all died before 30 days of age. Most polycystic cpk mice treated with weekly taxol survive more than 60 days. The dotted line starting at day 120 indicates the number and age of apparently healthy taxol treated polycystic mice that were sacrificed for histology studies. Pairs of mice were sacrificed at 120 days, 182 days and 210 days of age.
In order to determine whether taxol prevents cyst formation by inhibiting cell division, another drug known to have anti-mitotic activity, methotrexate, was tested for its ability to treat homozygous cpk mice. Six cpk mice were injected intraperitoneally with 15 μl of methotrexate solution (1.1 mg/ml in water) 10-12 days after birth and once every week thereafter. The methotrexate-injected mice survived until between 18 and 27 days after birth, with only one mouse living longer than 28 days. […] Therefore, the anti-mitotic activity of taxol cannot explain its ability to treat CPK mice having a polycystic-type kidney disease. Rather, the results from in vitro tests indicate that agents which interfere with the function of the cytoskeleton, or which inhibit the delivery of membrane proteins are useful in treating cystic diseases such as Polycystic Kidney Disease.
Eleven homozygous cpk mice, raised and identified as in Example 6 were treated with 15 μl of 10 mg/ml taxol in DMSO through intraperitoneal injection beginning 11-14 days after birth. Following the first treatment, the mice were administered with the same treatment once every week thereafter. As controls, 6 cpk mice were treated with 15 μl intraperitoneal injections of DMSO beginning 10-12 days after birth and then once every week thereafter.

[4] = human ADPKD cells, cytosine arabinoside 20 μg/ml, α-amanitin 100 ng/ml, cycloheximide 40 μg/ml, amiloride 1 mM, ouabain 0.5 mM, taxol 25 μM, colchicine 10 μM, vinblastine 1 μM, cytochalasins 10 μM

Molecule	cyst formation (in words) (human ADPKD cells; [4])	^3 H-dThd Incorporation (Murine CPK Cells [1])	Cyst Size (Murine CPK Cells [2])	Cyst Formation (+/-) (Murine CPK Cells [3])	cyst formation (in words) (Murine CPK Cells [2]; murine CPK cells)	other results
N=C(N)NC(=O)c1nc(Cl)c(N)nc1N [Amiloride]	completely block cyst formation	72 ± 25 % control	0 μm	-		cyst formation (in words) (human ADPKD cells; human ADPKD cells, cytosine arabinoside 20 μg/ml, α-amanitin 100 ng/ml, cycloheximide 40 μg/ml, amiloride 1 mM, ouabain 0.5 mM, taxol 25 μM, colchicine 10 μM, vinblastine 1 μM, cytochalasins 10 μM, listed as amiloride): cyst formation can be blocked; time to lumen appearance after removing the inhibitor (human ADPKD cells; human model): twenty-four; reversibility of inhibition of cyst formation (human ADPKD cells; human model, inhibitor removed): reversible
C[C@H]1CCC/C=C/[C@@H]2C[C@H](O)C[C@H]2[C@H](O)/C=C/C(=O)O1 [Brefeldin-A]			0 μm	-	completely inhibited cyst formation	
COc1cc2c(c(OC)c1OC)-c1ccc(OC)c(=O)cc1[C@@H](NC(C)=O)CC2 [Colchicine]		97 ± 12 % control				
C[C@@H]1C[C@@H]([C@H](O)CC2CC(=O)NC(=O)C2)C(=O)[C@@H](C)C1 [Cycloheximide]		88 ± 20 % control	68 ± 17 μm			cyst formation (in words) (human ADPKD cells): Neither cytosine arabinoside (20 μg/ml), α-amanitin (100 ng/ml) nor cycloheximide (40 μg/ml) inhibited cyst formation; Cyst Formation (+/-) (Murine CPK Cells [2]): +
C=C1C(C)C2C(Cc3ccccc3)NC(=O)C23OC(=O)/C=C/C(O)CCCC(C)C/C=C/C3C1O (stereo not shown) [Cytochalasin-B]	effectively inhibited cyst formation in both models	96 ± 5 % control	0 μm	-	effectively inhibited cyst formation in both models	
C=C1C(C)C2C(Cc3ccccc3)NC(=O)C23C(OC(C)=O)/C=C/C(C)(O)C(=O)C(C)C/C=C/C3C1O (stereo not shown) [Cytochalasin-D]	effectively inhibited cyst formation in both models	97 ± 2 % control	0 μm	-	effectively inhibited cyst formation in both models	
Nc1ccn([C@@H]2O[C@H](CO)[C@@H](O)[C@@H]2O)c(=O)n1 [Cytosine arabinoside, cytosine arabinoside]	Neither cytosine arabinoside (20 μg/ml), α-amanitin (100 ng/ml) nor cycloheximide (40 μg/ml) inhibited cyst formation; also recorded: no effect on in vitro cyst formation is observed	2 ± 2 % control	70 ± 21 μm	+	cyst formation was not affected; also recorded: cyst formation was not impaired after 24 hours of culture	^3 H-dThd incorporation / DNA synthesis (in words) (Murine CPK Cells [1]): profound decrease in ^3 H-dThd incorporation; also recorded: effectively abolished ^3 H-dThd incorporation; ^3 H-dThd Incorporation (Murine CPK Cells [1]; listed as cytosine arabinoside): 2±2 % control
CN(Cc1cnc2nc(N)nc(N)c2n1)c1ccc(C(=O)N[C@@H](CCC(=O)O)C(=O)O)cc1 [Methotrexate]						survival, age (homozygous cpk mice; weekly i.p. treatment, DMSO mice survived 24-28 days, FIG. 2: all methotrexate, most taxol mice, b191: remaining six taxol mice > 120, two died < 30): < 30 days; survival (in words) (homozygous cpk mice; weekly i.p., versus untreated or DMSO): did not appear to survive substantially longer than untreated controls
COC(=O)Nc1nc2ccc(C(=O)c3cccs3)cc2[nH]1 [Nocodazole]	reversibly inhibited	87 ± 16 % control	0 μm	-	reversibly inhibited	
CC[C@]1(O)C[C@@H]2CN(CCc3c([nH]c4ccccc34)[C@@](C(=O)OC)(c3cc4c(cc3OC)N(C)[C@H]3[C@@](O)(C(=O)OC)[C@H](OC(C)=O)[C@]5(CC)C=CCN6CC[C@]43[C@@H]65)C2)C1 [Vinblastine]	reversibly inhibited in vitro cyst formation in both models	93 ± 9 % control	0 μm	-	reversibly inhibited in vitro cyst formation in both models	
α-amanitin	Neither cytosine arabinoside (20 μg/ml), α-amanitin (100 ng/ml) nor cycloheximide (40 μg/ml) inhibited cyst formation	71 ± 10 % control	65 ± 27 μm			^3 H-dThd incorporation / DNA synthesis (in words) (Murine CPK Cells [1]): small, but significant, decrease in ^3 H-dThd incorporation; Cyst Formation (+/-) (Murine CPK Cells [2]; murine CPK cells, day 21, 24 h, final concentration per Table II (cytosine arabinoside 20 μg/ml, α-amanitin 100 ng/ml, cycloheximide 49 μg/ml, ouabain 1 mM, amiloride 1 mM, brefeldin-A 10 μg/ml, griseofulvin 350 μM, colchicine 10 μM, vinblastine 1 μM, nocodazole 30 μM, taxol 25 μM, cytochalasins 10 μM)): +
